This is an account of results in patent US20240197871A1, “COMBINATION OF A CAR T CELL THERAPY AND AN IMMUNOMODULATORY COMPOUND FOR TREATMENT OF LYMPHOMA” (Juno Therapeutics, Inc., priority 2021, published 2024).

The test system of the test is RL CD19+ tumor cells. Put plainly: Cytolytic function: co-culture of anti-CD19 CAR T cells with RL CD19+ tumor cells. It counts as cell-based. The note with it: E:T 1:1. As for the experimental part: To do so, CAR T cells were plated on ploy-D-lysine plates. CD19+ tumor cells transduced with IncuCyte® NucLight Red (Essen BioScience Inc.) were then added to the CAR T cells in addition to Compound C or vehicle control. Tumor cell number was measured over multiple days.
Treatment with CAR T cells in combination with either immunomodulatory compound led to lower tumor cell numbers than did CAR T cells alone or the compounds alone.

In the case of `O=C1CC[C@H](N2Cc3c(OCc4ccc(CN5CCOCC5)cc4)cccc3C2=O)C(=O)N1` [Compound 2, (S)-3-[4-(4-morpholin-4-ylmethyl-benzyloxy)-1-oxo-1,3-dihydro-isoindol-2-yl]-piperidine-2,6-dione, reference compound], the “RL tumor cell number vs CAR T cells alone or compound alone” value reads like this: (compound at 0.01 μM with anti-CD19 CAR T cells) “lower”; (compound at 0.1 μM with anti-CD19 CAR T cells) “lower”.
